This is an account of results in patent US7879792B2, “Synthetic peptide inhibitors of thrombin and thrombin activation of protease activated receptors 1 and 4” (The Regents of the University of Michigan, priority 2005, dated 2011).

A short description of data set [1]: stability testing in intestinal perfusate. As to conditions: rat, 37° C.; for half-life: intestinal perfusate. The format is in vitro ADME. As to the method: (§1) Stability testing of the various compounds was performed in buffer, intestinal perfusate, and an intestinal homogenate preparation to assess the potential oral availability of these compounds. Initial studies prepared the tissue for stability studies. The buffer used in stability testing is 10 mM MES (pH 6.5) containing 135 mM NaCl, and 5 mM KCl. To collect intestinal perfusate from rats, male Sprague Dawley rats, 8 to 10 weeks old, weighing 250 to 350 g were fasted 15 to 18 hours with water given ad libitum. Anesthesia was administered by intramuscular injection of pentobarbital/ketamine (40 mg/kg and 80 mg/kg, respectively). The rats were placed on a warming pad under a surgical lamp to maintain body temperature and jejunal intestinal segments were exposed through a midline, abdominal incision. Approximately 20 cm segment of the jejunum (2 to 4 cm distal to the ligament of Treitz) was cannulated and the intestinal segments were perfused with 10 mM MES (pH 6.5) containing 135 mM NaCl, and 5 mM KCl at a flow-rate of 0.5 ml/min at 37° C. using a constant infusion pump (Harvard Apparatus, South Natick, Mass.). The collected perfusate was stored at −80° C. until use for ex vivo stability studies. After collection, the perfused intestinal segments were flushed with ice-cold 0.15 M KCl solution and the animal was euthanized and the jejunal intestinal segment detached. The inner intestinal tissue layers are scraped out and homogenized in MES buffer (pH 6.5) in a ratio of 1 part of intestinal tissue to 5 parts buffer. Total protein content of the perfusate and the homogenate were determined using a Biorad protein assay kit. The intestinal homogenate samples were used immediately or rapidly frozen at −80° C. until stability analysis.
(§2) The actual stability testing protocol is as follows: A 0.1 ml aliquot of the synthetic peptide solution (1 mg/ml) was added to 0.9 ml of MES buffer, pH 6.5, intestinal perfusate, or intestinal homogenate at 37° C. Samples were mixed by vortexing and 100 microliter aliquots were removed over a 60 to 90 minute period for analysis of breakdown products. The 100 microliter sample aliquots were diluted 10 fold with water and subjected to solid phase extraction using a Waters Oasis HLB column. Briefly, the columns were preconditioned by passing 1 ml of MeOH and 1 ml of water over the column, and 1 ml of sample was added to the column. The column was washed with 5% methanol:95% water solution to remove proteins and salts, then eluted with 1 ml of 100% methanol. The methanol was removed by vacuum, and the sample was reconstituted in mobile phase for LC/MS/MS analysis.
(§3) LC/MS/MS analysis was performed on a HP1100 HPLC (Hewlett Packard) interfaced with a Quattro II MS/MS detector (Waters/Micromass). For the HPLC separation, a 10 μL aliquot of sample in a mobile phase consisting of an equal volume mixture of acetonitrile/water containing 0.5% formic acid was injected onto a 150 mm×2.2 mm, 5 μm C8 column (Higgins Analytical Inc) and developed at a flow rate of 0.2 ml/min for 5 minutes. The MS detector was used in single ion recording mode at a cone voltage of 50 Volts.

Data set [2] can be described thus: stability testing in intestinal homogenate. The format is in vitro ADME. As to conditions: rat. As to the method: as §1, §2, §3
The nature of data set [3]: rat intestinal in situ perfusion permeability. The format is in vivo. As to conditions: rat. As to the method: To determine the intestinal permeability of the various peptide analogs, male albino Sprague-Dawley rats, 9-10 weeks old and weighing 250-350 g were fasted for 18 hours with free access to water. The rats were anesthetized with an intramuscular injection of ketamine/xylazine/butorphanol (87 mg/kg, 6 mg/kg, and 0.2 mg/kg body weight, respectively). The abdomen was opened by a 4-5 cm midline incision and a 10 cm jejunal segment was cannulated on two ends and connected to a syringe pump that pumps the perfusing solution through the cannulated intestine at a constant rate and at a temperature of 37° C. The isolated segment was rinsed with 10 mM MES (pH 6.5) at a flow-rate of 0.5 ml/min in order to clean out any residual debris. Jejunal perfusion was subsequently performed with the same buffer containing 135 mM NaCl, 5 mM KCl and 0.01% PEG 4000 at a flow rate of 0.2 ml/min containing test compound, internal permeability reference standards (e.g., metoprolol) and ^14C-PEG 4000 as a non-absorbable marker for measuring water flux. After steady-state is reached within the perfused intestinal segment, typically 30 minutes after start of perfusion, samples were taken at 10 minute intervals for 1 hour. ^14C (PEG-4000) levels are assayed by scintillation counting and test compounds and internal permeability standard analysis by LC/MS/MS. Samples are frozen and stored at −80° C. until analysis.
The effective permeability (Peff) determined from the in situ perfusion is calculated from equation 1
[formula] where Q is the perfusion buffer flow rate, C′out is the outlet concentration of the compound that has been adjusted for water transport (equation 2) after passing through the intestinal segment, C′in is the inlet or starting concentration of the compound, R is the radius of the intestinal segment (set to 0.2 cm) and L is the length of the intestinal segment. To correct for water transport, a non-absorbed radioactive tracer, ^14C PEG-4000, is included in the perfusion buffer. The Cout/Cin ratio is corrected for water transport according to equation 2:
[formula] where Aout-A0 is equal to the radioactivity counts in the outlet sample minus background (dpm) and Ain-A0 is equal to the radioactivity counts in the inlet sample minus background (dpm).
In certain instances, in addition to perfusing the intestinal segment as described, plasma is drawn through a portal vein cannula to determine the amount of material entering the portal system during the perfusion. This additional experimental step can aid in determining the true intestinal permeability of unstable compounds. After steady state conditions are reached as described above, 0.5 ml aliquots of plasma are withdrawn from the portal vein at regular intervals throughout the experimental time frame. The plasma samples are deproteinated with acetonitrile and the sample is subjected to SPE and LC/MS analysis as described above. From the plasma concentration of compound, the mesenteric permeability can be determined by substitution into equation 3: Flux=A*Pe-mes*Ci 3) where Flux is equal to the portal blood flow (estimated at 1 ml/min in the rat)×the steady state mesenteric blood concentration of the peptide analogs, A is the absorptive area of the intestine (estimated at 12.56 cm^2 in the rat intestine), Pe-mes is the mesenteric Permeability (cm/sec), and Ci is the starting concentration of drug in the perfusate (ug/ml).

Setting [4] is: read-out: t1/2 (min) Intestinal Perfusate.

Like-named read-outs stand apart in the source and are kept apart here. Where a SMILES comes first, the peptide text is derived from it.

Take `N=C(N)NCCC[C@@H](N)C(=O)N1[C@H](C(=O)N2C[C@H](O)C[C@H]2C(=O)NCC(=O)N[C@H](C(N)=O)C2Cc3ccccc3C2)C[C@@H]2CCCC[C@@H]21` [rOicHypGIdg] (HELM PEPTIDE1{[dR].[O=C([C@@H]1C[C@@H]2CCCC[C@@H]2N1[*:1])[*:2]].[Hyp].G.[O=C([C@@H](N[*:1])C1Cc2ccccc2C1)[*:2]].[am]}$$$$V2.0): in data set [1] (setting [4]), the half-life was found to be 205 min.

On to `N=C(N)NCCC[C@@H](N)C(=O)N1[C@H](C(=O)N2CCC[C@H]2C(=O)O)C[C@@H]2CCCC[C@@H]21` [rOicP] (HELM PEPTIDE1{[dR].[O=C([C@@H]1C[C@@H]2CCCC[C@@H]2N1[*:1])[*:2]].P}$$$$V2.0), for which, in data set [1], the “t1/2 (min) Intestinal Perfusate” value is given as “stable”. Besides, the half-life in data set [2] (intestinal homogenate, 37° C., read-out: t1/2 (min) Intestinal Homogenate) is 935 min. For the same molecule, the “stability in intestinal homogenate (FIG. 12)” value in data set [2] was “most stable”. Moreover, the Papp in data set [3] (from portal vein plasma during perfusion, read-out: Permeability (mesenteric)) worked out at 1.63 ×10⁻⁶ cm/s; in data set [3] (rat jejunal in situ perfusion, read-out: Permeability (in situ)), 7.6 ×10⁻⁶ cm/s.

With `N=C(N)NCCC[C@@H](N)C(=O)N1[C@H](C(=O)N2CCC[C@H]2C(=O)NCC(=O)N[C@H](C(N)=O)C2Cc3ccccc3C2)C[C@@H]2CCCC[C@@H]21` [rOicPGIdg] (HELM PEPTIDE1{[dR].[O=C([C@@H]1C[C@@H]2CCCC[C@@H]2N1[*:1])[*:2]].P.G.[O=C([C@@H](N[*:1])C1Cc2ccccc2C1)[*:2]].[am]}$$$$V2.0), the half-life in data set [1] (setting [4]) is 56.1 min.

`N=C(N)NCCC[C@H](N)C(=O)N1CCC[C@H]1C(=O)N1CCC[C@H]1C(=O)O` [RPP, Arg-Pro-Pro, reference compound] (H-Arg-Pro-Pro-OH; C-terminus assumed): in data set [1] (male, Sprague Dawley, intestinal (jejunal) perfusate, pH 6.5, rat, read-out: t1/2 (min) Intestinal Perfusate), the half-life at 0.1 mg/ml stood at 91.8 min.
